Laboratory results: patent US20210253718A1, “FRIZZLED5 PROTEIN-BINDING AGENTS” (Modmab Therapeutics Corporation, priority 2016, published 2021)

How the values were obtained:
Type in all cases: cell-based, human
PaTu-8988S cells = test: Cell viability assay (Alamar Blue) in PDAC cell lines, LGK974 comparator
HPAF-II cells = test: Crystal violet staining proliferation (clonogenic growth) assay; conditions: 100 nM LGK974
Experimental: Crystal Violet Staining Proliferation Assay: HPAFII Cas9 cells were transduced with lentivirus generated with the indicated pLCKO plasmid as described above. 24 hours after infection cells were treated with puromycin. After 48 hours of selection, cells were PBS washed extensively, dissociated and counted. 2000 cells per well were re-seeded in 24-well format in media without puromycin. 24 hours post seeding, indicated wells were treated with DMSO control or 100 nM LGK974 (Cayman Chemical #14072) (note that these wells were from the LacZ gRNA population). Medium was renewed every 3-4 days and cells were fixed, 10 days post plating, using 100% ice-cold methanol. After fixation cells were stained with 0.5% crystal violet, 25% methanol solution for 20 minutes at room temperature, after which staining solution was removed and plates were washed several times in dH2O.
To validate the screen results HPAF-II cells were first infected with lentivirus coding for various gRNAs, transduced cells were selected for 48 hours and plated in clonogenic growth assays. […] In contrast, the growth of PANC-1 and BxPC-3 cell lines, which are wild-type for RNF43, was not inhibited by gRNAs targeting FZD5, FZD7 or CTNNB1 (FIG. 4C and FIG. 5).

ASPC-1 cells = test: Cell viability assay (Alamar Blue) in PDAC cell lines, LGK974 comparator
MUC5AC = test: RT-qPCR of differentiation induced gene MUC5AC; conditions: RNF43-mutant PDAC cells
Experimental: Reverse transcription and quantitative real-time PCR: After indicated treatments, cells were lysed in Tri-reagent (BioShop Canada #TSS120) and RNA extracted using the manufacturer's protocol. RNA concentration was quantified with Nanodrop1000 (Thermo Scientific) and 2 micrograms of RNA per sample was DNase I treated (ThermoFisher #AM2222). DNase treated RNA was used to make cDNA with High-Capacity cDNA Reverse Transcription Kit (ThermoFisher #4368813). Real-time PCR was performed using Power SYBR Green Master Mix on the 7900HT Fast Real-Time PCR system. Primer pairs are listed below. Analysis was done using the comparative cycle threshold (CT) method (Bookout et al., 2006) with all samples normalized to PPIB (cyclophilin B) expression. To validate the screen results HPAF-II cells were first infected with lentivirus coding for various gRNAs, transduced cells were selected for 48 hours and plated in clonogenic growth assays. […] In contrast, the growth of PANC-1 and BxPC-3 cell lines, which are wild-type for RNF43, was not inhibited by gRNAs targeting FZD5, FZD7 or CTNNB1 (FIG. 4C and FIG. 5).

Cc1cc(-c2ncc(CC(=O)Nc3ccc(-c4cnccn4)cn3)cc2C)ccn1 [LGK974]
growth (cell viability) (PaTu-8988S cells): inhibited the growth
growth in clonogenic growth assay (HPAF-II cells): robust growth inhibition
growth (cell viability) (ASPC-1 cells): inhibited the growth
expression of the differentiation marker MUC5AC (MUC5AC): increased expression
